Reference: patent US20260097091A1, “ADMINISTRATION OF GLUTATHIONE TRISULFIDE TO AMELIORATE PERIPHERAL NEUROPATHY” (The General Hospital Corporation, priority 2022, published 2026)

Assays:
primary DRG neurons = primary DRG neurons exposed to paclitaxel: Sholl analysis and axonal mitochondria (NF200, MitoTracker); type: cell-based, mice
Procedure: Primary DRG neurons were prepared from 8 to 10-week old mice as described previously. Briefly, lumber DRG (L1 to L6) were isolated from mice and centrifuged at 176×g (1000 rpm) for 3 minutes. After aspirating the solution, DRG were incubated with Dispase-II Solution (Sigma-Aldrich, Cat No. SCM133) and collagenase type II (Worthington, Cat No. LS004176) for 70 minutes and with 0.25% trypsin for 5 minutes. Subsequently triturated by frame polished glass pipet, neurons were seeded on a 12-well plate with 15 mm coverslip. Cells were incubated in Neurobasal A-medium with 2% B27 supplement (Gibco, Cat No. 10889038), 1% penicillin/streptomycin, 1% Glutamax (Gibco, Cat No. 35050061), and nerve growth factor (Sigma Aldrich, Cat No. N6009) for 24 hours. After 24 hours, they were exposed to 100 nM of paclitaxel with or without 500 nM of GSSSG or PTNSSS for one hour and 50 nM of MitoTracker (Invitrogen, Cat No. M22426) for 30 minutes. After fixing by 4% paraformaldehyde for 10 minutes at room temperature, cells were immersed in 0.2% Triton X-100 in PBS for 7 minutes and washed by PBS. They were incubated with anti-NF200 antibody (1:400, mouse, Sigma-Aldrich, Cat No. N0142) overnight at 4° C. and with the secondary antibody (1:1000, donkey anti-mouse, Abcam, Cat No. ab150105) for one hour at room temperature. After being covered with fluoroshield mounting medium with DAPI (Sigma-Aldrich, Cat No. F6057), 9-10 cells per group (3 mice per group) were imaged on confocal microscopy (ZEISS LSM 800, Carl Zeiss, Thornwood, NY) using a 63× oil immersion objectives lens with 1,024×1,024 pixels image size.
Effects of PTNSSS and GSSSG on axonal integrity were examined in cultured murine primary DRG neurons incubated with paclitaxel. […] Morphology of neurons, the number, length, and branching of neurites, was analyzed by Sholl analysis implemented in ImageJ [30]. Sholl analysis draws equally spaced circles from the soma and counts the number of intersections between neurites and circles to quantify neuronal morphology (FIG. 8C).

mouse model of PIPN = test: von Frey test of mechanical allodynia in mouse model of paclitaxel-induced peripheral neuropathy; type: in vivo, mice (C57BL/6J)
From the text: All animal protocols were approved by the Massachusetts General Hospital Institutional Animal Care and Use Committee. Animals were cared for in accordance with the guidelines established by the NIH and the International Association for the Study of Pain [16]. Male C57BL/6J mice (6-7 weeks old) were purchased from the Jackson Laboratory (Bar Harbor, ME, USA). The mice were housed in a 12-hour shift light-control environment from 7 am to […] with ad libitum access to food and water in our animal facility until the time of experiments.
Paclitaxel (Sigma-Aldrich) was dissolved with ethanol and cremophor (1:1) and diluted with normal saline (1:4). Peripheral neuropathy was induced in mice by intraperitoneal (i.p.) administration of 4 mg/kg paclitaxel every other day for a total of 4 injections (cumulative dose of 16 mg/kg), according to a previously described protocol. A stable, crystallized form of GSSSG was produced and provided by Kyowa Hakko Bio CO., LTD. GSSSG was pulverized and mixed in 0.5% methylcellulose. […] The dose of GSSSG was determined based on pilot studies. […]
Mechanical withdrawal thresholds were measured by the manual von Frey filament test to assess mechanical allodynia. […] The 50% threshold of a paw withdrawal response was calculated by the Up-down Reader based on the up and down method. […]

[1] = 500 nM GSSSG with 100 nM paclitaxel for one hour, vs paclitaxel

| SMILES | axonal elongation (Sholl analysis) (primary DRG neurons; 500 nM GSSSG with 100 nM paclitaxel for one hour, >160 μm from soma, vs paclitaxel) | number of mitochondria in axons (primary DRG neurons; [1]) | ratio of the total mitochondria length to axonal length (primary DRG neurons; [1]) | mechanical allodynia (von Frey test) (mouse model of PIPN; GSSSG 50 mg/kg/day oral for 28 days in paclitaxel-treated mice, vs paclitaxel alone) | number of mitochondria in axons (primary DRG neurons; 100 nM paclitaxel for one hour) | ratio of the total mitochondria length to axonal length (primary DRG neurons; 100 nM paclitaxel for one hour) | elongation of axons (Sholl analysis) (primary DRG neurons; 100 nM paclitaxel for one hour, vs control) | paw withdrawal threshold (von Frey test) (mouse model of PIPN; paclitaxel 4 mg/kg i.p. every other day, 4 injections, week 1 through week 4, vs control mice) |
| --- | --- | --- | --- | --- | --- | --- | --- | --- |
| N[C@@H](CCC(=O)N[C@@H](CSSSC[C@H](NC(=O)CC[C@H](N)C(=O)O)C(=O)NCC(=O)O)C(=O)NCC(=O)O)C(=O)O [GSSSG, glutathione trisulfide] | restored axonal elongation | prevented paclitaxel-induced decrease | prevented paclitaxel-induced decrease of the ratio of the total mitochondria length to axonal length | mitigated mechanical allodynia over the experimental period |  |  |  |  |
| CC(=O)O[C@H]1C(=O)[C@@]2(C)[C@H]([C@H](OC(=O)c3ccccc3)[C@]3(O)C[C@H](OC(=O)[C@H](O)[C@@H](NC(=O)c4ccccc4)c4ccccc4)C(C)=C1C3(C)C)[C@]1(OC(C)=O)CO[C@@H]1C[C@@H]2O [paclitaxel, Paclitaxel, reference compound] |  |  |  |  | decreased | decreased the ratio of the total mitochondria length to axonal length | hampered elongation of axons | significantly lower paw withdrawal threshold than control mice |
